Molecular target: T1, Human Recombinant Matriptase 2 (Homo sapiens, UniProt Q8IU80)
T1 construct: made in house
T1 sequence (Q8IU80 1-811): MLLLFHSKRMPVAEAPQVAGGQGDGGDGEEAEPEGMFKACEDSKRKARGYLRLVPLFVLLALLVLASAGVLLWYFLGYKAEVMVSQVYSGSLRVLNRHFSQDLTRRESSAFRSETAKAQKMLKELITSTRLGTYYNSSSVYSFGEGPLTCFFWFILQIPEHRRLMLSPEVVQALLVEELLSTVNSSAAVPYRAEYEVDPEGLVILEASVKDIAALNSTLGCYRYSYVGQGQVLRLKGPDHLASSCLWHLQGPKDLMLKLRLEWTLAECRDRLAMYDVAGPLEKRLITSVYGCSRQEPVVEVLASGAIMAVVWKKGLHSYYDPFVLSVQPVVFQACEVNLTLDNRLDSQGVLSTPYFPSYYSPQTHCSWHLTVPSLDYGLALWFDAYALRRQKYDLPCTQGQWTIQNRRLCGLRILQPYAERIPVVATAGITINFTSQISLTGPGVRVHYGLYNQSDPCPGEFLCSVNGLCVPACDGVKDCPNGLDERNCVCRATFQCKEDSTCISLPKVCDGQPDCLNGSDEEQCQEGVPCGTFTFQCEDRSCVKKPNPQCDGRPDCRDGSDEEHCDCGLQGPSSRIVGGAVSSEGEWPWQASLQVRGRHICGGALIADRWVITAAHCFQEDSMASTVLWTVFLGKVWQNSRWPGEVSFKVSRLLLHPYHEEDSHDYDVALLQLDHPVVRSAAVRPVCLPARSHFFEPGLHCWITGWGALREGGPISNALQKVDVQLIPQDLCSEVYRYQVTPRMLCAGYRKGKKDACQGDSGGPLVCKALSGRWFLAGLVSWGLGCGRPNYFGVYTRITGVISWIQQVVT
Experiment: Matriptase 2 inhibition, fluorescence based assay (Method I)
Type: biochemical
Details: Table A; Ki of Matriptase-2 given as class symbols; read-out: Mat-2 Ki
Method in brief: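 In-house recombinant enzyme (3.5 nM), preincubated 30 min with compound, then Boc-Gln-Ala-Arg-AMC substrate (62 μM) in 50 mM Tris pH 7.5, 150 mM NaCl, 0.01% gelatin, 1% DMSO, 25 °C. Fluorescence (Ex 360/Em 480 nm) read 60 min after substrate; IC50 from variable-slope sigmoidal fit of % inhibition.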

Compound | Ki [nM]
NCc1ccc2cc(C(=O)O)n(Cc3cc(NC(=O)N4CC5CC(C5)C4)cc4ccccc34)c2n1 [Compound 308, 6-(aminomethyl)-1-{[3-({3-azabicyclo[3.1.1]-heptane-3-carbonyl}-amino)naphthalen-1-yl]-methyl}-1H-pyrrolo[2,3-b]pyridine-2-carboxylic acid] | 500 to 3000
CN1CCC(c2nnc(-c3cc4ccc(CN)nc4n3Cc3cc(NS(=O)(=O)Cc4ccccc4)cc4ccccc34)o2)CC1 [Compound 345, N-(4-((6-(aminomethyl)-2-(5-(1-methylpiperidin-4-yl)-1,3,4-oxadiazol-2-yl)-1H-pyrrolo[2,3-b]pyridin-1-yl)methyl)naphthalen-2-yl)-1-phenylmethanesulfonamide] | ≤ 100
CN1CCC(Cc2nnc(-c3cc4ccc(CN)nc4n3Cc3cc(NS(=O)(=O)Cc4ccccc4)cc4ccccc34)o2)CC1 [Compound 346, N-(4-{[6-(aminomethyl)-2-{5-[(1-methylpiperidin-4-yl)methyl]-1,3,4-oxa-diazol-2-yl}-1H-pyrrolo-[2,3-b]pyridin-1-yl]meth-yl}naphthalen-2-yl)-1-phenylmethanesulfon-amide] | 100 to 500
CN(C)Cc1nnc(-c2cc3ccc(CN)nc3n2Cc2cc(NS(=O)(=O)Cc3ccccc3)cc3ccccc23)o1 [Compound 347, N-(4-{[6-(aminomethyl)-2-{5-[(dimethylamino)-methyl]-1,3,4-oxadiazol-2-yl}-1H-pyrrolo[2,3-b]pyridin-1-yl]methyl}-naphthalen-2-yl)-1-phen-ylmethanesulfonamide] | 100 to 500
NCc1ccc2cc(-c3nnc(N)o3)n(Cc3cc(NS(=O)(=O)Cc4ccccc4)cc4ccccc34)c2n1 [Compound 348, N-(4-{[2-(5-amino-1,3,4-oxadiazol-2-yl)-6-(amino-methyl)-1H-pyrrolo[2,3-b]pyridin-1-yl]methyl}-naphthalen-2-yl)-1-phen-ylmethanesulfonamide] | ≤ 100
CN(C)CC(=O)Nc1nnc(-c2cc3ccc(CN)nc3n2Cc2cc(NS(=O)(=O)Cc3ccccc3)cc3ccccc23)o1 [Compound 349] | ≤ 100
NCc1ccc2cc(-c3cnn[nH]3)n(Cc3cc(NS(=O)(=O)Cc4ccccc4)cc4ccccc34)c2n1 [Compound 350, N-(4-((6-(aminomethyl)-2-(1H-1,2,3-triazol-5-yl)-1H-pyrrolo[2,3-b]pyridin-1-yl)methyl)naphthalen-2-yl)-1-phenylmethanesulfonamide] | 100 to 500
NCc1ccc2cc(-c3ccn[nH]3)n(Cc3cc(NS(=O)(=O)Cc4ccccc4)cc4ccccc34)c2n1 [Compound 351] | ≤ 100
NCc1ccc2cc(-c3ncn[nH]3)n(Cc3cc(NS(=O)(=O)Cc4ccccc4)cc4ccccc34)c2n1 [Compound 352] | ≤ 100
NCc1ccc2cc(-c3noc(=O)[nH]3)n(Cc3cc(NS(=O)(=O)Cc4ccccc4)cc4ccccc34)c2n1 [Compound 353, N-(4-((6-(aminomethyl)-2-(5-hydroxy-1,2,4-oxadiazol-3-yl)-1H-pyrrolo[2,3-b]pyridin-1-yl)methyl)naphthalen-2-yl)-1-phenylmethanesulfonamide] | 100 to 500
CCOC(=O)c1cc2ccc(CNC(=O)c3ccccc3COC(C)=O)nc2n1Cc1cc(NS(=O)(=O)Cc2ccccc2)cc2ccccc12 [Compound 358, ethyl 6-[({2-[(acetyl-oxy)methyl]phenyl}-formamido)methyl]-1-{[3-(phenylmethane-sulfonamido)naphthalen-1-yl]methyl}-1H-pyr-rolo[2,3-b]pyridine-2-carboxylate] | 500 to 3000
Cc1oc(=O)oc1COC(=O)NCc1ccc2cc(C(=O)O)n(Cc3cc(NS(=O)(=O)Cc4ccccc4)cc4ccccc34)c2n1 [Compound 359, 6-(((((5-methyl-2-oxo-1,3-dioxol-4-yl)methoxy)carbonyl)amino)methyl)-1-((3-((phenylmethyl)sulfonamido)naphthalen-1-yl)methyl)-1H-pyrrolo[2,3-b]pyridine-2-carboxylic acid] | 100 to 500
NCc1ccc2cc(C(=O)O)n(Cc3cc(NS(=O)(=O)Cc4ccccc4)cc4cccc(O)c34)c2n1 [Compound 360, 6-(aminomethyl)-1-((8-hydroxy-3-((phenylmethyl)sulfonamido)naphthalen-1-yl)methyl)-1H-pyrrolo[2,3-b]pyridine-2-carboxylic acid] | 100 to 500
NCc1ccc2cc(CO)n(Cc3cc(NS(=O)(=O)Cc4ccccc4)cc4ccccc34)c2n1 [Compound 365, N-(4-((6-(aminomethyl)-2-(hydroxymethyl)-1H-pyrrolo[2,3-b]pyridin-1-yl)methyl)naphthalen-2-yl)-1-phenylmethanesulfonamide] | 500 to 3000
NCc1ccc2cc(-c3nnn[nH]3)n(Cc3cc(NS(=O)(=O)Cc4ccccc4)cc4ccccc34)c2n1 [Compound 366, N-(4-((6-(aminomethyl)-2-(1H-tetrazol-5-yl)-1H-pyrrolo[2,3-b]pyridin-1-yl)methyl)naphthalen-2-yl)-1-phenylmethanesulfonamide] | ≤ 100
NCc1ccc2cc(C(=O)O)n(Cc3cc(NS(=O)(=O)Cc4ccccc4)cc4ccccc34)c2c1 [Compound 370, 6-(aminomethyl)-1-((3-((phenylmethyl)sulfonamido)naphthalen-1-yl)methyl)-1H-indole-2-carboxylic acid] | ≤ 100
CN1CCC(OC(=O)c2cc3ccc(CN)cc3n2Cc2cc(NS(=O)(=O)Cc3ccccc3)cc3ccccc23)CC1 [Compound 371, 1-methylpiperidin-4-yl 6-(aminomethyl)-1-((3-((phenylmethyl)sulfonamido)naphthalen-1-yl)methyl)-1H-indole-2-carboxylate] | ≤ 100

Next, values leading:

Ki [nM] | Compound
100 to 500 | CN1CCC[C@H]1COC(=O)Nc1cc(Cn2c(C(=O)O)cc3ccc(CN)nc32)c2ccccc2c1 [Compound 334, 6-(aminomethyl)-1-({3-[({[(2S)-1-methylpyr-rolidin-2-yl]methoxy}-carbonyl)amino]naph-thalen-1-yl}methyl)-1H-pyrrolo[2,3-b]pyr-idine-2-carboxylic acid]
100 to 500 | CN1CCC[C@@H]1COC(=O)Nc1cc(Cn2c(C(=O)O)cc3ccc(CN)nc32)c2ccccc2c1 [Compound 336, 6-(aminomethyl)-1-({3-[({[(2R)-1-methylpyr-rolidin-2-yl]methoxy}-carbonyl)amino]naph-thalen-1-yl}methyl)-1H-pyrrolo[2,3-b]pyr-idine-2-carboxylic acid]
500 to 3000 | CC(C)N(CCOC(=O)Nc1cc(Cn2c(C(=O)O)cc3ccc(CN)nc32)c2ccccc2c1)C(C)C [Compound 338, 6-(aminomethyl)-1-({3-[({2-[bis(propan-2-yl)-amino]ethoxy}carbonyl)-amino]naphthalen-1-yl}-methyl)-1H-pyrrolo[2,3-b]pyridine-2-carboxylic acid]
500 to 3000 | CN(C)C(=O)N1CC[C@H](OC(=O)Nc2cc(Cn3c(C(=O)O)cc4ccc(CN)nc43)c3ccccc3c2)C1 [Compound 341]
100 to 500 | COCCN1CCN(C(=O)Nc2cc(Cn3c(C(N)=O)cc4ccc(CN)nc43)c3ccccc3c2)CC1 [Compound 344, 6-(aminomethyl)-1-((3-(4-(2-methoxyethyl)piperazine-1-carboxamido)naphthalen-1-yl)methyl)-1H-pyrrolo[2,3-b]pyridine-2-carboxamide]
100 to 500 | COc1ccc2c(Cn3c(C(=O)O)cc4ccc(CN)nc43)cc(NS(=O)(=O)Cc3ccccc3)cc2c1 [Compound 361]
100 to 500 | NCc1ccc2cc(CO)n(Cc3cc(NS(=O)(=O)CC4CCNCC4)cc4ccccc34)c2n1 [Compound 362]

— patent publication US20240400553A1, “AMINE BASED MATRIPTASE 2 INHIBITORS AND USES THEREOF” (Disc Medicine, Inc., priority 2023, published 2024)
